From patent publication US7718677B2, “Methods and compositions for reduction of side effects of therapeutic treatments” (priority 2007, dated 2010)

Test system: 6-hydroxydopamine-lesioned rats
Protocol: Animal model—6-Hydroxydopamine lesioning. We used the 6-hydroxydopamine lesioned rat model of nigrostriatal damage described by Cenci and colleagues (Cenci et al., 1998 Eur J Neurosci 10:2694-2706; Cenci et al., 2002 Nat Rev Neurosci 3:574-579). Adult male Sprague-Dawley rats were anesthetized with isofluorane, and then placed in a Kopf stereotaxic instrument. Burr holes were drilled through the skull and an intracranial injection of 6 μg 6-hydroxydopamine (2 μg/μl) stereotaxically injected at two separate sites into the right ascending dopamine fiber bundle, for a total of 12 μg 6-hydroxydopamine. The coordinates for the position of these two lesion sites were as follows relative to the Bregma and dural surface: (1) anteroposterior, −4.4; lateral, 1.2; ventral, 7.8; tooth bar at −2.4; (2) anteroposterior, −4.0; lateral, 0.75; ventral, 8.0; tooth bar at +3.4 (Cenci et al., 1998 Eur J Neurosci 10:2694-2706; Cenci et al., 2002 Nat Rev Neurosci 3:574-579). All procedures conformed to the NIH Guide for the Care and Use of Laboratory Animals and were approved by the Institutional Animal Care and Use Committee.
Nicotine treatment regimen. The rats were first given a drinking solution containing 1% saccharin for 3-4 days (FIG. 8). Nicotine was then added at a concentration of 25 μg/ml, and increased to 50 μg/ml 3-4 days later. Animals were maintained on this dose for 3 weeks. L-dopa treatment was then initiated, as below, with the nicotine dosing continued.
L-dopa treatment and behavioral testing for AIMs. Rats received single daily intraperitoneal injections of 8 mg/kg L-dopa methyl ester plus 15 mg/kg benserazide for 3 weeks (FIG. 8), as described (Cenci et al., 1998 Eur J Neurosci 10:2694-2706; Cenci et al., 2002 Nat Rev Neurosci 3:574-579). Abnormal involuntary movements (AIMs) after daily LDOPA injection were then quantified using the scale developed by Cenci and colleagues (Cenci et al., 1998 Eur J Neurosci 10:2694-2706; Cenci et al., 2002 Nat Rev Neurosci 3:574-579), as previously done in our laboratory (Cox et al., 2007, Exp. Neurol.). Rats were placed in a Rotomax test chamber. They were then scored on a scale from 0 to 4: 1=occasional; 2=frequent; 3=continuous but interrupted by sensory distraction; 4=continuous, severe, not interrupted by sensory distraction. The rating categories were as follows; (1) axial dystonia, consisting of twisting posturing of the head and neck; (2) orolingual dyskinesia, with stereotyped jaw movements and contralateral tongue protrusion and (3) forelimb movements, with dystonic movements of the contralateral forelimb. They were also assessed for locomotive dyskinesia, or increased locomotion with contralateral side bias; however, these scores were not included because the interpretation of this motor response is not clear (Papa et al., 1994 Brain Res 662; 69-74; Cenci et al., 1998 Eur J Neurosci 10:2694-2706).
Locomotive dyskinesias are distinct from turning behavior described above. […] The maximum possible score in each session was thus 108 (maximum score per observation=12; number of observations per session=9). Rats were evaluated by two raters, one blinded to treatment.
Data analyses. Statistical significance was determined using Student's t-tests or ANOVA followed by Bonferroni post hoc tests, as appropriate. Data are mean±SEM. A p level of 0.05 was considered significant.

**Q.** Which “total AIMs” value (25 μg/ml nicotine in the drinking water, two and four weeks after dose lowering, pooled) does the source give for CN1CCCC1c1cccnc1 (stereo not drawn) [Nicotine, S-3-(1-methyl-2-pyrrolidinyl)pyridine] here?
**A.** reduction in AIMs was sustained

**Q.** What about the “total AIM scores” value (50 μg/ml nicotine in drinking water, after 3 weeks of L-dopa 8 mg/kg ip, entire 3-hour period) of the same molecule?
**A.** reduction

**Q.** And the oral dyskinesias (3 and 6-8 week time points)?
**A.** trend for a decrease

**Q.** And the forelimb dyskinesias (3 and 6-8 week time points, both doses of nicotine (50 and 25 μg/ml))?
**A.** significant decreases

**Q.** And the axial dyskinesias (6-8 week time point)?
**A.** significant decreases

**Q.** And the “persistence of the decline in AIMs with L-dopa treatment” value (25 and 50 μg/ml in the drinking water)?
**A.** at least 2 months
